Assay results from EP1525218B1, “BICYCLIC OLIGOPEPTIDES AND THEIR USE AS GLUCAGON RECEPTOR ANTAGONISTS” (Boehringer Ingelheim Pharma GmbH & Co.KG, priority 2002, dated 2004).
Like-named read-outs stand apart in the source and are kept apart here. Positions of bridges follow the written chain, without caps; N, C: chain ends. Residues, ends and D or L forms follow the SMILES beside them.

Assays:
[1] = target: T1, human glucagon receptor (Homo sapiens, UniProt P47871); assay: Glucagon binding assay (competition binding with 125I-glucagon, BHK-21 cell membranes)
T1 construct: expressed in transfected cells; host or cells: BHK-21(C-13) baby hamster kidney cells, stably transfected (pcDNA3.1 construct, G-418 selection); plasma membranes
T1 sequence (P47871 26-477): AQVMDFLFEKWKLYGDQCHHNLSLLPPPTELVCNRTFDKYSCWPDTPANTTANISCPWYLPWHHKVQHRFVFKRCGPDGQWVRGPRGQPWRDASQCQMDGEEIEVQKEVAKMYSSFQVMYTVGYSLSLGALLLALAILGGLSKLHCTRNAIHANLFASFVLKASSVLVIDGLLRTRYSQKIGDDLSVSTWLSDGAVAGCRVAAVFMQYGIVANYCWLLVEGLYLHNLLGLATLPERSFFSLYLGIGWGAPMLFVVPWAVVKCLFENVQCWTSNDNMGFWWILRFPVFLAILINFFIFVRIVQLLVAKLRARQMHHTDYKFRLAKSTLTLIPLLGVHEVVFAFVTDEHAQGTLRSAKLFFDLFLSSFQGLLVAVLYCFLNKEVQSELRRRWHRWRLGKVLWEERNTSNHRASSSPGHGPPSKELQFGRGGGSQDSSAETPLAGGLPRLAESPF
Experimental: Binding of peptides to the glucagon receptor was assayed in a competition binding-assay using a membrane fraction containing the cloned human glucagon receptor and radiolabeled glucagon. The cDNA coding for the human glucagon receptor was cloned into expression vector pcDNA3.1 (Invitrogene). Baby hamster kidney cells (BHK-21(C-13) cells (ATCC)) were transfected with the expression construct for the human glucagon receptor and a stably transfected cell clone was isolated after selection with G-418 (Gibco). Plasma membranes containing the human glucagon receptor were prepared from stably transfected BHK-21 cells. Cells were grown to confluence, washed and detached with ice cold PBS buffer (Gibco), containing 0.05% EDTA and collected in PBS buffer. The cells were collected by centrifugation and suspended in 20 volumes of ice-cold tris buffer (10 mM tris/HCl, pH7.2; 0.01 mM PMSF (Phenylmethylsulfonyl fluoride)) and incubated for 90 minutes. […] The protein-bound radioactivity is separated from unbound ligand by filtration and washing on a Multiscreen-[…] (Millipore) using GC/B filters (Packard) and measured after addition of 20 μl Microscint 20 in a topcount scintillation counter (Packard). The non-specific binding is defined as radioactivity bound in the presence of 1 μM glucagon (Wherl GmbH). Accordingly an IC50 value can be calculated from the results obtained in the above test method. […]

[2] = Stability in plasma; type: in vitro ADME; conditions: Rat Plasma; substrate initial conc. 1 µM; 37°C, up to 45 min
Experimental: (§1) Incubations with preparations of microsomes and cytosol and with plasma under conditions as described below are suitable to investigate the metabolic stability of test compounds (e.g. oxidative metabolism reactions and hydrolysis by esterases). The metabolic stability of the test compounds of examples 1 and 2 is investigated in liver microsomes and cytosol of humans, dogs and rats and in plasma of humans and rats.
Incubations of test substrates (final concentration: 1 µM) are performed with human and rat plasma (heparin) containing 0.1 M Tris buffer pH 7.4. The reaction is initiated by addition of the test compound at 37°C for up to 45 min and terminated by addition of acetonitrile. After vortex mixing and centrifugation the supernatants are analyzed.
(§2) The samples are analyzed by on-line solid phase extraction and reversed phase HPLC coupled to electro-spray ionization tandem mass spectrometry. The measurements are performed on a triple quad mass spectrometer Quattro II (Micromass, Manchester, UK). The instrument operates at nominal mass resolution in SIR-mode. The analytes are quantified by detection of their quasimolecular ions [M+2H]^2+ m/z 1019 (Example 1) and m/z 1026 (Example 2).

[3] = Metabolic stability with liver microsomes; type: in vitro ADME; conditions: substrate initial conc. 1 µM, 37°C, up to 45 min
Experimental: as §1
(§3) Incubations of test compounds (final concentration: 1 µM) are performed with liver microsomes and cytosol (0.5 mg protein/ml) in Tris buffer (Tris-(hydroxymethyl)-aminomethane) pH 7.4 (0.1 M) containing magnesium chloride (5 mM) at 37°C for up to 45 min in a total volume of 100 µl. The reaction is initiated by addition of β-nicotinamide adenine dinucleotide phosphate, reduced form (NADPH, 1 mM) and terminated by addition of acetonitrile. After vortex mixing and centrifugation the supernatants are analyzed.
as §2

[4] = Metabolic stability with liver cytosol; type: in vitro ADME; conditions: substrate initial conc. 1 µM, 37°C, up to 45 min
Experimental: as §1, §3, §2

[5] = Solubility in buffer; type: physicochemical
Excerpt: and the following solubilities:

## CC[C@H](C)[C@@H]1NC(=O)[C@@H]2CC(=O)NCC(=O)N[C@@H](CC(C)C)C(=O)N3CCC[C@H]3C(=O)N[C@@H](Cc3c[nH]c4ccccc34)C(=O)NCC(=O)N[C@@H](CSSC[C@@H](C(=O)O)NC(=O)[C@H](C)NC(=O)[C@H](Cc3c[nH]c4ccccc34)NC(=O)[C@@H]3CCCN3C(=O)[C@H]([C@@H](C)O)NC(=O)[C@H](CC(N)=O)NC(=O)[C@H](Cc3c[nH]c4ccccc34)NC(=O)CNC(=O)[C@@H]3CCCN3C1=O)C(=O)N1CCC[C@H]1C(=O)N[C@@H](CO)C(=O)N2 [Example 1] (GLPWGCPSDIPGWNTPWAC-OH; disulfide 6-19; lactam N-9)
[1]; competition with 125I-glucagon, membranes with cloned human glucagon receptor, read-out: IC50
  IC50: 0.1 µM
[2]
  Half-lives, (t½ [min]): stable
[3]; Dog Micros
  Half-lives, (t½ [min]): stable
[3]; Human Micros
  Half-lives, (t½ [min]): stable
[3]; Rat Micros
  Half-lives, (t½ [min]): stable
[4]; Dog Cytosol
  Half-lives, (t½ [min]): stable
[4]; Human Cytosol
  Half-lives, (t½ [min]): stable
[4]; Rat Cytosol
  Half-lives, (t½ [min]): stable
[5]; Buffer pH 3.0
  solubilities: 0.003 mg/mL
[5]; Buffer pH 7.4
  solubilities: 0.120 mg/mL
[5]; Buffer pH 10.0
  solubilities: 0.092 mg/mL

## CC[C@H](C)[C@@H]1NC(=O)[C@@H]2CC(=O)NCC(=O)N[C@@H](CC(C)C)C(=O)N3CCC[C@H]3C(=O)N[C@@H](Cc3c[nH]c4ccccc34)C(=O)NCC(=O)N[C@@H](CSSC[C@@H](C(=O)OC)NC(=O)[C@H](C)NC(=O)[C@H](Cc3c[nH]c4ccccc34)NC(=O)[C@@H]3CCCN3C(=O)[C@H]([C@@H](C)O)NC(=O)[C@H](CC(N)=O)NC(=O)[C@H](Cc3c[nH]c4ccccc34)NC(=O)CNC(=O)[C@@H]3CCCN3C1=O)C(=O)N1CCC[C@H]1C(=O)N[C@@H](CO)C(=O)N2 [Example 2] (GLPWGCPSDIPGWNTPWAC-OMe; disulfide 6-19; lactam N-9)
[1]
  IC50: 0.135 µM
[2]
  Half-lives, (t½ [min]): stable
[3]; Dog Micros
  Half-lives, (t½ [min]): stable
[3]; Human Micros
  Half-lives, (t½ [min]): stable
[3]; Rat Micros
  Half-lives, (t½ [min]): stable
[5]; Buffer pH 3.0
  solubilities: 0.003 mg/mL
[5]; Buffer pH 7.4
  solubilities: 0.002 mg/mL
[5]; Buffer pH 10.0
  solubilities: 0.004 mg/mL
